# Experimental data from ChEMBL document CHEMBL1128068, “Inhibitors of human collagenase: dipeptide mimetics with lactam and azalactam moieties at the position” (Bioorg Med Chem Lett, 1995).
# Biological target: T1, Interstitial collagenase (Homo sapiens, UniProt P03956)
# T1 sequence (P03956 whole entry): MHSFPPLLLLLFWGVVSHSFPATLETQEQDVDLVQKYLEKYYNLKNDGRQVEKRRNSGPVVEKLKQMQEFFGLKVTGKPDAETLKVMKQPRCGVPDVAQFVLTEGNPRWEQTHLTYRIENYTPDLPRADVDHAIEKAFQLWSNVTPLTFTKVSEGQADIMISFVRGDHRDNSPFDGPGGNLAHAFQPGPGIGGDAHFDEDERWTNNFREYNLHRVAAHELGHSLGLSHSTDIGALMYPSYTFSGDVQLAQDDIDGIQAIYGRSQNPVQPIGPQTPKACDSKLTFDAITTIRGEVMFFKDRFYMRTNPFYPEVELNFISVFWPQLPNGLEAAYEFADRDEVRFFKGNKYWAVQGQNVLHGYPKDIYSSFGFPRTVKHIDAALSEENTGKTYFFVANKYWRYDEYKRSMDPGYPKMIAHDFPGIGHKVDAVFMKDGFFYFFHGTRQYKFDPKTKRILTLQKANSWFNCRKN
# Experiment: Inhibition of semi-purified human lung fibroblast collagenase
row,SMILES,IC50
1,CC(C)CC(C(=O)NC1CCCCNCCCCCNC1=O)[C@@H](S)CC(=O)OC(C)C (stereo partly specified),44 nM
2,CC[C@H](N[C@@H](CC(C)C)C(=O)NC1CCCCNCCCCCNC1=O)P(=O)(O)O (stereo partly specified),460 nM
3,CC(C)CC(CC(=O)NO)C(=O)NC1CCCCCCCCCCNC1=O (stereo unspecified),26 nM
4,CCC(N[C@@H](CC(C)C)C(=O)NC1CCCCCCCCCCNC1=O)P(=O)(O)O (stereo partly specified),183 nM
5,CC(C)CC(CC(=O)NO)C(=O)N[C@H]1CCCCNCCCCCNC1=O (stereo in doubt; 17b),82 nM

# The remaining compounds from weak to strong by IC50, led by results:
row,IC50,SMILES
1,2230 nM,CC[C@H](N[C@@H](CC(C)C)C(=O)NC1CCCCNCCCNC1=O)P(=O)(O)O (stereo partly specified)
2,510 nM,CC[C@H](N[C@@H](CC(C)C)C(=O)NC1CCCCN(C)CCCCCNC1=O)P(=O)(O)O (stereo partly specified)
3,307 nM,CC[C@H](N[C@@H](CC(C)C)C(=O)NC1CCCCNCCCCCCNC1=O)P(=O)(O)O (stereo partly specified)
4,227 nM,CC[C@H](N[C@@H](CC(C)C)C(=O)NC1CCCNCCCCCCNC1=O)P(=O)(O)O (stereo partly specified)
5,51 nM,CC(C)C[C@@H](C(=O)NC1CCCCCCCCCCNC1=O)[C@@H](S)CC(=O)OC(C)C (stereo partly specified)
6,12 nM,CC(C)CC(CC(=O)NO)C(=O)N[C@H]1CCCCNCCCCCNC1=O (stereo in doubt; 17a)
